The values below come from ChEMBL document CHEMBL3638781, “Inhibitors of Œ=-secretase” (2015).

Broadly, the IC50 is the concentration that gives 50% inhibition.

The target in the test is Beta-secretase 1 (Homo sapiens, UniProt P56817). Kind of test: Fluorescence Quench Assay: The inhibitory activity of compounds was assessed by a fluorescence quench assay of BACE1 activity using commercially available substrate HiLyte Fluor 488-[…](QXLT 520)-OH (SEQ ID NO:1) AnaSpec, San Jose, Calif.) and truncated human beta-secretase, BACE1 (amino acids 1-454) fused to a myc-his tag and secreted from HEK293/BACEect. cells into OptiMEM (Invitrogen). The substrate was dissolved at 1 mg/ml in DMSO.The assay was performed in the presence of OptiMEM (supernatant collected over 24 h and cleared from cellular debris by centrifugation) containing the ectodomain of BACE1, 25 ul water containing the desired 2-fold concentration of test compound and 2% DMSO, 1 uM substrate peptide, 20 mM NaOAc, pH 4.4, and 0.04% Triton-X100 in a total assay volume of 50 ul in a 384 well plate. In general, 25 ul of compound dilution were given to the plate followed by the addition of 10 ul of BACE1 containing OptiMEM diluted 1:10 in water.
Chain of Beta-secretase 1 (P56817 whole entry, the tested form may be a part): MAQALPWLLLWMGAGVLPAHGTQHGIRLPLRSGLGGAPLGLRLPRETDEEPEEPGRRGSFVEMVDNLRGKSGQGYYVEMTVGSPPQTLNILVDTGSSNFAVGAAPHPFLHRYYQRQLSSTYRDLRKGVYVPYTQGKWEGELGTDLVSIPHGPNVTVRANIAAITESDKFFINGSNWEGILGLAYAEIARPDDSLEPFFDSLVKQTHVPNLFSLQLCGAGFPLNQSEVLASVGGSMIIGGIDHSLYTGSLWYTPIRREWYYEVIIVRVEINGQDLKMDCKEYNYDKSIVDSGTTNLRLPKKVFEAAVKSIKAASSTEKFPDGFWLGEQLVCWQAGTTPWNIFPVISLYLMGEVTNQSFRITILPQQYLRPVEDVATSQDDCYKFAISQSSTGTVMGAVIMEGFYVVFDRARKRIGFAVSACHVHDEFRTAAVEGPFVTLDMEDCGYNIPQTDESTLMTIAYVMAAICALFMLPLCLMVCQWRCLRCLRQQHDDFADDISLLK

Turning to `CO[C@H]1CC[C@@]2(Cc3ccc(C#N)cc3[C@]23N=C(N)N(Cc2ncccn2)C3=O)C[C@@H]1C`, the IC50 amounted to 11 nM.
